Holding throughout (format): cell-based
Assay [1] relates to mixed culture of slime-forming bacteria. Kind of assay: Bactericidal test on a mixed culture of slime-forming bacteria in saline. Conditions: 30 ppm, start 10^7 organisms/ml in saline. The procedure: A mixed culture of slime-forming bacteria including Pseudomonas aeruginosa, Enterobacter aerogenes, Escherichia coli, Proteus vulgaris, Bacillus mycoides and Staphylococcus aureus in saline containing 10^7 organisms/ml was treated with 30 ppm of the product of Example 2.

For assay [2], the system named is Phormidium foveolarum. Kind of assay: Test demonstrating algistatic activity. Conditions: Nodosilinea foveolarum, 504 h, 3 week incubation, shaking water bath, read-out: Minimum inhibitory Concentration, MIC. The procedure: (§1) The organisms against which the compounds are to be tested are grown in an Erlenmeyer flask in a nutrient medium under sterile conditions on a shaking water bath at 18° C. with exposure (14 hours in light alternating with 10 hours in the dark).
(§2) Tests are carried out against three algae, namely the blue algae
(a) Phormidium foveolarum (A) which lives in polluted water or moist earth and forms trichomes;
(§3) The composition of the medium is as follows (according to Algae broth, Difco Laboratories):
(§4) dissolved in 1 liter of distilled water. The nutrient medium treated with the biocide is innoculated with the respective algae suspension such that a final dilution of 1/100 (algae divided with a stirrer) is attained. Evaluation is made after a 3 week incubation in the Erlenmeyer flask on a shaking water bath.

The test system of assay [3] is Tribonema aequale. The assay is described as follows: Test demonstrating algistatic activity. Conditions: 504 h, 3 week incubation, shaking water bath, read-out: Minimum inhibitory Concentration, MIC. The procedure: as §1, §2
and the algae with brown chromatophors
(c) the widespread, unbranched filament-forming Tribonema aequale (C) occurring in bodies of water especially in the spring at low temperature or in the autumn, even in mild winters.
as §3, §4

Assay [4] relates to Ulothrix subtilissima. Kind of assay: Test demonstrating algistatic activity. Conditions: Klebsormidium subtilissimum, 504 h, 3 week incubation, shaking water bath, read-out: Minimum inhibitory Concentration, MIC. The procedure:
as §1, §2
(b) the simple filament-forming Ulothrix subtilissima (B) generally found at colder times of the year in rapidly flowing water;
as §3, §4

≈ marks a conversion by molar mass, not a printed value.

As for `O=C1CC(Cl)(CC(Cl)(Cl)Cl)O1` (centres unmarked) [Example 2, 4-chloro-4-(2,2,2-trichloroethyl)oxetan-2-one], the “number of organisms reduced to” value in assay [1] (after one hour) is 10^2 organisms/ml. Also, the killing of bacteria entry in assay [1] (within 24 hours) is on record as “all the bacteria had been killed”. Further, the MIC in assay [2], in assay [3] and in assay [4] was 30 µg/mL (≈ 126 µM) throughout.

The record behind these values is US4363923A, “4-Halgeno-oxetan-2-ones and process for their production” (Ciba-Geigy Corporation, priority 1980, dated 1982).
